Experimental data published in US20040115742A1, “Method to identify specific interaction between ligand and receptor” (priority 2002, published 2004).

What was measured:
[1] = biological target: T1, erythropoietin receptor (EPOR, P19235) (Homo sapiens, UniProt P19235); experiment: cell-based ligand-lactamase fusion binding to cells expressing EPO receptor (CCF2 fluorescence); details: for fluorescence readout, multiplexed pool of 12 receptors: EPOR in pool of 12 receptors; for fluorescence readout, multiplexed pool of 96 receptors: EPOR in pool of 96 receptors; for fluorescence readout, one on one receptor-ligand binding / fluorescence readout, multiplexed pool of 12 ligands / fluorescence readout, multiplexed pool of 96 ligands: EPOR; for fluorescence readout, one on one receptor-ligand binding: one to one, beta-lactamase reporter, CCF2 substrate
T1 construct: V5-His (from vector pcDNA3.1D/V5-His-TOPO); expressed in transfected cells
T1 sequence (P19235 25-508): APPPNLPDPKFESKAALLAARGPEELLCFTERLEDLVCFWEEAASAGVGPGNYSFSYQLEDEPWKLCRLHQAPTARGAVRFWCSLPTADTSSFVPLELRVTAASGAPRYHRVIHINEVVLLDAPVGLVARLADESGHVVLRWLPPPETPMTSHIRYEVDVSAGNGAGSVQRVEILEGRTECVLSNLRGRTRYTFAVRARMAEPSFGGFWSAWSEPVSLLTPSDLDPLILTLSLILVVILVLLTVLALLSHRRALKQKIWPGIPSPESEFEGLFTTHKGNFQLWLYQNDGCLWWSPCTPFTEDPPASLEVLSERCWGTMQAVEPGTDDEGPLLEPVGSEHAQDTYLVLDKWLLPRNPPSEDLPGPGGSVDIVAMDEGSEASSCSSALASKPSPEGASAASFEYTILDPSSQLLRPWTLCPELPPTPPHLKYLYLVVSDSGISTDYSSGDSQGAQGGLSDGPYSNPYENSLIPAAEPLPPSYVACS
Protocol: (§1) Cells transfected with plasmids expressing a ligand lactamase fusion and cells transiently or stably expressing receptor were independently cultured in multiple well (e.g., 96-well, 384-well, or 1536-well) plates. After growth, the culture medium of the cells transiently or stably expressing receptor was removed, and the culture medium of the cells expressing ligand lactamase fusion was added to the wells of cells stably expressing receptor. After the mixture was incubated at 4° C. for 1 hour, the medium was removed. The cells stably expressing receptor were washed three times with PBS containing 1% FBS (Invitrogen), and a lactamase substrate, such as CCF2 in […], was added to the washed cells in each well, and incubated. The fluorescence emission at 447 nm with excitation at 409 nm was measured using the Spectra Max Gemim (Molecular Devices) at different time points. The increase of fluorescence emission at 447 nm represented the lactamase activity of ligand fusion bound on the cell surface.
The EPO receptor and EPO, IL-8, and TNF ligand lactamase fusion proteins were expressed as described above. The EPO, IL-8, and TNF ligand lactamase fusions were contacted with the EPO receptor in duplicate experiments.
(§2) EPO, IL-8, and TNF receptors and ligands were expressed as described above. Known ligands, including the EPO ligand, were grouped to form a multiplexed pool of 12 ligands and a multiplexed pool of 96 ligands. Compared to the fluorescence readout for one on one receptor-ligand binding for EPO/EPOR (26398 arbitrary units), the fluorescence readout (and thus, binding) was less for EPO/IL-8R (−503) and EPO/TNFR (−1027).
(§3) EPO, IL-8, and TNF receptors and ligands were expressed as described above. Known receptors, including the EPO receptor, were grouped to form a multiplexed pool of 12 receptors and a multiplexed pool of 96 receptors. Compared to the fluorescence readout for one on one receptor-ligand binding for EPOR/EPO (26398 arbitrary units), the fluorescence readout (and thus, binding) was less for EPOR/IL-8 (−902) and EPOR/TNF (−1113.5).

[2] = biological target: T2, interleukin-8 receptor A (IL8R, P25024) (Homo sapiens, UniProt P25024); experiment: cell-based ligand-lactamase fusion binding to cells expressing IL-8 receptor (CCF2 fluorescence); details: for fluorescence readout, multiplexed pool of 12 receptors: IL-8R in pool of 12 receptors; for fluorescence readout, multiplexed pool of 96 receptors: IL-8R in pool of 96 receptors; for fluorescence readout, one on one receptor-ligand binding / fluorescence readout, multiplexed pool of 12 ligands / fluorescence readout, multiplexed pool of 96 ligands: IL-8R; for fluorescence readout, one on one receptor-ligand binding: one to one, beta-lactamase reporter, CCF2 substrate
T2 construct: V5-His (from vector pcDNA3.1D/V5-His-TOPO); expressed in transfected cells
T2 sequence (P25024 1-350): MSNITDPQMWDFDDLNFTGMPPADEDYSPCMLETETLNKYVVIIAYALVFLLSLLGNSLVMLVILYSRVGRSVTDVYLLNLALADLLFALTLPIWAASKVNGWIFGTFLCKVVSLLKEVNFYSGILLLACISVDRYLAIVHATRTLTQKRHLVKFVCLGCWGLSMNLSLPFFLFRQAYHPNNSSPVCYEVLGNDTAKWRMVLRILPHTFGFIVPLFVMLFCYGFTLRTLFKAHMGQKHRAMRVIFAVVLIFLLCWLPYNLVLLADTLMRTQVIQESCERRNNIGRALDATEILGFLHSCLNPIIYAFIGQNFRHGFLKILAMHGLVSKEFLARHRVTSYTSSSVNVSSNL
Protocol: as §1
The IL-8 receptor and IL-8, EPO, and TNF ligand lactamase fusion proteins were expressed as described above. The IL-8, EPO, and TNF ligand lactamase fusions were contacted with the IL-8 receptor in duplicate experiments.
EPO, IL-8, and TNF receptors and ligands were expressed as described above. Known ligands, including the IL-8 ligand, were grouped to form a multiplexed pool of 12 ligands and a multiplexed pool of 96 ligands.
EPO, IL-8, and TNF receptors and ligands were expressed as described above. Known receptors, including the IL-8 receptor, were grouped to form a multiplexed pool of 12 receptors and a multiplexed pool of 96 receptors.

[3] = biological target: T3, tumor necrosis factor receptor 2 (TNFR, P20333) (Homo sapiens, UniProt P20333); experiment: cell-based ligand-lactamase fusion binding to cells expressing TNF receptor (CCF2 fluorescence); details: for fluorescence readout, multiplexed pool of 12 receptors: TNFR in pool of 12 receptors; for fluorescence readout, multiplexed pool of 96 receptors: TNFR in pool of 96 receptors; for fluorescence readout, one on one receptor-ligand binding / fluorescence readout, multiplexed pool of 12 ligands / fluorescence readout, multiplexed pool of 96 ligands: TNFR; for fluorescence readout, one on one receptor-ligand binding: one to one, beta-lactamase reporter, CCF2 substrate
T3 construct: V5-His (from vector pcDNA3.1D/V5-His-TOPO); expressed in transfected cells
T3 sequence (P20333 23-461): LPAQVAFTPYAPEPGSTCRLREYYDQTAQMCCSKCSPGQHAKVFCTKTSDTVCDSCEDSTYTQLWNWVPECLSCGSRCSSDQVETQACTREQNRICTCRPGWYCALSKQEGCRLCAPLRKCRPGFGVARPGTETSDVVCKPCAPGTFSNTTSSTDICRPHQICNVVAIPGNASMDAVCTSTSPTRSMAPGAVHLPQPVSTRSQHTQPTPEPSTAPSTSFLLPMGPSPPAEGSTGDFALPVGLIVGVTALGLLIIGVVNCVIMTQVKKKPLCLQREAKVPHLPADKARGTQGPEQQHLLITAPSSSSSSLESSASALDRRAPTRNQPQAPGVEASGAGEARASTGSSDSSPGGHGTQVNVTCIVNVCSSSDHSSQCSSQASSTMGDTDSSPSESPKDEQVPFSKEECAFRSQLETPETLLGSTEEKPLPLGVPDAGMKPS
Protocol: as §1
The TNF receptor and TNF, EPO, and IL-8 ligand lactamase fusion proteins were expressed as described above. The TNF, EPO, and IL-8 ligand lactamase fusions were contacted with the TNF receptor in duplicate experiments.
as §2, with “the TNF” for “the EPO”, “for TNF/TNFR (32899” for “for EPO/EPOR (26398”, “for TNF/EPOR (−1113.5)” for “for EPO/IL-8R (−503)”, “and TNF/IL-8R (−814.5).” for “and EPO/TNFR (−1027).”
as §3, with “the TNF” for “the EPO”, “for TNFR/TNF (32899” for “for EPOR/EPO (26398”, “for TNFR/EPO (−1027)” for “for EPOR/IL-8 (−902)”, “and TNFR/IL-8 (−1677).” for “and EPOR/TNF (−1113.5).”

[4] = duplicate experiments, in words

Substance	fluorescence readout of the positive well (FIG. 6) ([1]; 96-well plate, cDNA expression library, multiplexing factor of 12, one out of 96 wells)	fluorescence readout, multiplexed pool of 12 receptors [1]	fluorescence readout, multiplexed pool of 96 receptors [1]	fluorescence readout, one on one receptor-ligand binding [1]	fluorescence readout, multiplexed pool of 12 ligands [1]	fluorescence readout, multiplexed pool of 96 ligands [1]	fluorescence readout of ligand binding with EPO receptor (FIG. 3) [1, 4]	fluorescence readout, multiplexed pool of 12 receptors [2]	fluorescence readout, multiplexed pool of 96 receptors [2]	fluorescence readout, one on one receptor-ligand binding [2]	fluorescence readout, multiplexed pool of 12 ligands [2]	fluorescence readout, multiplexed pool of 96 ligands [2]	fluorescence readout, multiplexed pool of 12 receptors [3]	fluorescence readout, multiplexed pool of 96 receptors [3]	fluorescence readout, one on one receptor-ligand binding [3]	fluorescence readout, multiplexed pool of 12 ligands [3]	fluorescence readout, multiplexed pool of 96 ligands [3]	fluorescence readout of ligand binding with IL-8 receptor (FIG. 3) [2, 4]	fluorescence readout of ligand binding with TNF receptor (FIG. 3) [3, 4]
erythropoietin [EPO]	13444	13570 arbitrary units	1454 arbitrary units	26398 arbitrary units	13570 arbitrary units	1454 arbitrary units	high fluorescence readout	−785 arbitrary units	−1334 arbitrary units	−503 arbitrary units	−785 arbitrary units	−1334 arbitrary units	−1598 arbitrary units	−1177 arbitrary units	−1027 arbitrary units	−1598 arbitrary units	−1177 arbitrary units	–	–
interleukin-8 [IL-8]	–	−1059 arbitrary units	−1448 arbitrary units	−902 arbitrary units	−1059 arbitrary units	-1450 arbitrary units	–	3785 arbitrary units	−476 arbitrary units	16941 arbitrary units	3785 arbitrary units	−476 arbitrary units	−1847 arbitrary units	−718 arbitrary units	−1677 arbitrary units	−147 arbitrary units	−718 arbitrary units	high fluorescence readout	–
tumor necrosis factor alpha [TNF]	–	-1000 arbitrary units	−1634 arbitrary units	−1113.5 arbitrary units	−1005.5 arbitrary units	−1634 arbitrary units	–	−1275.5 arbitrary units	−381 arbitrary units	–	−1275.5 arbitrary units	−381 arbitrary units	26974.5 arbitrary units	6485.5 arbitrary units	32899 arbitrary units	26974.5 arbitrary units	6485.5 arbitrary units	–	high fluorescence readout
